Reference: publication PMC4136963, “Structure-Based Design and Synthesis of Antiparasitic Pyrrolopyrimidines Targeting Pteridine Reductase 1” (Journal of Medicinal Chemistry, 2014)
Structures can show the parent of a compound that is named as a salt. Where two headings read alike, the source gives them in different places.

Experiments:
T. b. brucei = test: microbe, parasite or virus in culture; assay type: cell-based, T. b. brucei (strain Lister 427)
Description: Cells were routinely diluted when reaching the mid-log-phase concentration of 2 × 10^6 cells/mL and maintained in culture for no more than 30 passages.
Compounds’ potency against trypanosomes was assessed by Alamar blue assay.[31] Cells were seeded at a final concentration of 2 × 10^4 cells/mL into serial dilutions of the test compound. After 48 h incubation at 37 °C and 5% CO2, 20 μL of resazurin dye (Sigma-Aldrich) solution at 0.49 mM was added, and cells were incubated for a further 24 h. The reduction of resazurin was measured with a fluorimeter (FLUOstar Optima, BMG Labtech) using 544 nm excitation and 590 nm emission wavelengths. Output was plotted using the IC50 determination algorithm of the GraphPad Prism 5.0 software. All experiments were carried out in duplicate and repeated on at least three independent occasions.

HEK 293T cells = test: cells; assay type: cell-based, human; settings: read-out: HEK (IC50 μM)
Clearance (Cli) = assay type: in vitro ADME; settings: footnote: Cli is the clearance in vivo
[1] = Plasma binding (fraction unbound); assay type: in vitro ADME; settings: mouse; fraction unbound by plasma; read-out: plasma bind fu
[2] = Metabolic stability in microsomal assay (t1/2); assay type: in vitro ADME; settings: microsomes
T. b. brucei strain 427 = settings: infected mice, 30 mg/kg i.p. once daily up to 4 days; one surviving mouse per group; from ∼10^8
Description: Twenty-four hours postinfection mice were injected intraperitoneally with 30 mg/kg daily of test compound (repeated for four consecutive days), prepared in a 10% v/v DMSO, 40% v/v PEG, and 50% v/v water solution. Parasitaemia was monitored daily by tail venipuncture. Infected, untreated mice were used as control.

[3] = Trypanosoma brucei, read-out: T. b. brucei (IC50 μM) CMM, Creek's minimal medium (CMM)
[4] = Trypanosoma brucei, read-out: T. b. brucei (IC50 μM) HMI-9, HMI-9 medium
[5] = read-out: T. b. brucei (IC50 μM) CMM, Creek's minimal medium (CMM)
[6] = read-out: T. b. brucei (IC50 μM) HMI-9, HMI-9 medium
[7] = half-life of the compound, read-out: t1/2
[8] = Trypanosoma brucei, read-out: T. b. brucei (IC50 μM), medium not stated

Compound | IC50 (T. b. brucei; [3]) | IC50 (T. b. brucei; [4]) | IC50 (HEK 293T cells; Homo sapiens, HEK-293T) | IC50 (T. b. brucei; [8]) | also measured
Nc1nc(N)c2c(-c3ccccc3)c(-c3ccccc3)[nH]c2n1 [35a, 5,6-Diphenyl-7H-pyrrolo[2,3-d]pyrimidine-2,4-diamine] | 0.58 µM | 2.25 µM | 62.9 µM | – | IC50 (T. b. brucei; [5]): 0.583 µM; IC50 (T. b. brucei; [6]): 2.25 µM; IC50 (HEK 293T cells): 62.9 µM; Cli (Clearance (Cli)): 5.26 mL/min/g; fraction unbound [1]: 0.035; half-life [2, 7]: ~1.67 h
Cc1ccc(C(C[N+](=O)[O-])c2c(N)nc(N)nc2N)cc1 (stereo not shown) [28a] | – | – | 32.5 µM | 0.47 µM | –
CN(Cc1cnc2nc(N)nc(N)c2n1)c1ccc(C(=O)N[C@@H](CCC(=O)O)C(=O)O)cc1 [methotrexate, reference compound] | 0.011 µM | 3.66 µM | – | – | –
Nc1nc(N2CCCC2)c2c(C#Cc3ccccc3)c[nH]c2n1 [compound 20, 5-(Phenylethynyl)-4-(1-pyrrolidinyl)-7H-pyrrolo[2,3-d]pyrimidin-2-amine] | – | – | – | – | Cli (Clearance (Cli)): 5.6 mL/min/g
Nc1nc2[nH]c(-c3ccc(F)cc3)c(-c3ccccc3)c2c(=O)[nH]1 [34c, 2-Amino-6-(4-fluorophenyl)-5-phenyl-3,7-dihydro-4H-pyrrolo[2,3-d]pyrimidin-4-one] | 0.61 µM | 0.74 µM | > 200 µM | – | IC50 (T. b. brucei; [5]): 0.614 µM; IC50 (T. b. brucei; [6]): 0.738 µM; Cli (Clearance (Cli)): 0.17 mL/min/g; fraction unbound [1]: 0.017
Nc1nc(N)c(C(C[N+](=O)[O-])c2ccc(F)cc2)c(N)n1 (stereo not shown) [28b] | – | – | 39.1 µM | 0.16 µM | –
N#Cc1c[nH]c2nc(N)nc(N)c12 [compound 4, 2,4-diamino-7H-pyrrolo[2,3-d]pyrimidine-5-carbonitrile] | – | – | – | 2440 µM | –
Nc1nc(N)c(C(C[N+](=O)[O-])c2ccc(F)cc2)c(NC2CCCCC2)n1 (stereo not shown) [30b] | 0.8 µM | 0.54 µM | 32.6 µM | – | –
N#Cc1c[nH]c2nc(N)nc(N3CCSCC3)c12 [12d] | – | – | – | 14.3 µM | –
CC(C)Oc1nc(N)nc(N)c1C(C[N+](=O)[O-])c1ccc(F)cc1 (stereo not shown) [30c, 5-[1-(4-Fluorophenyl)-2-nitroethyl]-6-isopropyloxy-2,4-pyrimidinediamine] | 8.48 µM | 15.9 µM | – | – | –
Nc1nc(N)c2c(-c3ccccc3)c(-c3ccc(F)cc3)[nH]c2n1 [35b, 6-(4-Fluorophenyl)-5-phenyl-7H-pyrrolo[2,3-d]pyrimidine-2,4-diamine] | 0.08 µM | 0.32 µM | 49.2 µM | – | IC50 (T. b. brucei; [5]): 0.082 µM; IC50 (T. b. brucei; [6]): 0.321 µM; IC50 (HEK 293T cells): 49.2 µM; Cli (Clearance (Cli)): 1.90 mL/min/g; fraction unbound [1]: 0.011; half-life [2, 7]: > 8.33 h; half-life ([2]; metabolic stability in microsomal assay, read-out: t1/2 in microsomal assay): > 8 h; reduction of parasitaemia (T. b. brucei strain 427): below detectable limits
Nc1nc2[nH]c(-c3ccccc3)c(CCc3ccccc3)c2c(=O)[nH]1 [34i] | – | – | – | – | Cli (Clearance (Cli)): 2.5 mL/min/g
Nc1nc(N)c(C(C[N+](=O)[O-])c2ccc(F)cc2)c(=O)[nH]1 (stereo not shown) [26b] | – | – | 150 µM | 1.86 µM | –
Nc1nc2[nH]c(-c3ccc(CCCN4CCOCC4)cc3)c(-c3ccccc3)c2c(=O)[nH]1 [compound 38, 2-Amino-6-{4-[3-(4-morpholinyl)propyl]phenyl}-5-phenyl-3,7-dihydro-4H-pyrrolo[2,3-d]pyrimidin-4-one trifluoroacetate] | 20.1 µM | 38.1 µM | – | – | –
Nc1nc2[nH]c(-c3ccc(F)cc3)c(-c3cccc(Cl)c3)c2c(=O)[nH]1 [34l] | – | – | – | – | Cli (Clearance (Cli)): <0.5 mL/min/g
Nc1nc(N)c2c(-c3ccc(F)cc3)c[nH]c2n1 [29b] | – | – | – | – | Cli (Clearance (Cli)): 1.7 mL/min/g
CC(C)COc1nc(N)nc(N)c1C(C[N+](=O)[O-])c1ccc(F)cc1 (stereo not shown) [30a] | 10.6 µM | 13.9 µM | – | – | –
Nc1nc(N2CCSCC2)c2cc[nH]c2n1 [8b] | – | – | – | 80.1 µM | –
Nc1nc(N)c(C(CCc2ccccc2)C[N+](=O)[O-])c(N)n1 (stereo not shown) [28d] | – | – | – | 8.82 µM | –
Nc1nc2[nH]cc(CCc3ccccc3)c2c(=O)[nH]1 [27d] | – | – | – | 7620 µM | –
N=C(N)c1ccc(/N=N/Nc2ccc(C(=N)N)cc2)cc1 [diminazene, reference compound] | 0.007 µM | 0.027 µM | – | – | –
Nc1nc2[nH]c(-c3ccccc3)c(-c3ccccc3)c2c(=O)[nH]1 [34a, 2-Amino-5,6-diphenyl-3,7-dihydro-4H-pyrrolo[2,3-d]pyrimidin-4-one] | 0.41 µM | 0.64 µM | – | – | IC50 (T. b. brucei; [5]): 0.407 µM; fraction unbound [1]: 0.029; half-life [2, 7]: ~2.17 h
N#Cc1c(-c2cccc(C=O)c2)[nH]c2nc(N)nc(N)c12 [6a] | – | – | – | 6.03 µM | –
Nc1nc(N)c(C(C[N+](=O)[O-])c2ccccc2)c(N)n1 (stereo not shown) [28c, 5-(2-Nitro-1-phenylethyl)-2,4,6-pyrimidinetriamine] | – | – | 35 µM | 0.13 µM | –
Nc1nc(N)c(C(C[N+](=O)[O-])c2ccccc2)c(=O)[nH]1 (stereo not shown) [26c, 2,6-diamino-5-(2-nitro-1-phenylethyl)-4(3H)-pyrimidinone] | – | – | 134 µM | 1.02 µM | –
Cc1ccc(C(C[N+](=O)[O-])c2c(N)nc(N)[nH]c2=O)cc1 (stereo not shown) [26a] | – | – | 73.4 µM | 2.04 µM | –
